# Source: ChEMBL document CHEMBL1141596, “A new class of bradykinin B1 receptor antagonists with high oral bioavailability and minimal PXR activity” (Bioorg Med Chem Lett, 2008)
# What was measured:
# [1] = Apparent permeability by cell based assay; type: ADME; settings: not told
# [2] = biological target: T1, PXR (Nuclear receptor subfamily 1 group I member 2) (Homo sapiens, UniProt O75469); experiment: Reduction of PXR activation at 10 uM relative to rifampicin; parameters: scale not given: the % may be the effect or the level left; settings: read-out: Activity
# T1 sequence (O75469 whole entry): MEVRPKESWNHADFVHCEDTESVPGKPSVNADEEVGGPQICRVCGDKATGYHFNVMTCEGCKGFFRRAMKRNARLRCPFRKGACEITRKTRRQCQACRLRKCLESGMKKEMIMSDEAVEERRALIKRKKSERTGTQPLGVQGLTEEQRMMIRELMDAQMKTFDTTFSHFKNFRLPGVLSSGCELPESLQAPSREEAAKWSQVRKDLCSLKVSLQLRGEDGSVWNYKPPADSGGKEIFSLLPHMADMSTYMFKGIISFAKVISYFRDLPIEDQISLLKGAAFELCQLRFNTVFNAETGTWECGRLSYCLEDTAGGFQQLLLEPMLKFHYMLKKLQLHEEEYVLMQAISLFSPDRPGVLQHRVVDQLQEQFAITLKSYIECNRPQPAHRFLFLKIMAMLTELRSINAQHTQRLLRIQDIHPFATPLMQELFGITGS
# [3] = Half life in Mongrel dog at 1 mg/kg, iv; type: ADME, organism-based, Canis lupus familiaris; parameters: dose 1 mg/kg, route intravenous; settings: in vivo
# [4] = Clearance in Mongrel dog at 1 mg/kg, iv; type: ADME, organism-based, Canis lupus familiaris; parameters: dose 1 mg/kg, route intravenous; settings: in vivo
# B1 bradykinin receptor = biological target: T2, B1 bradykinin receptor (Homo sapiens, UniProt P46663); experiment: Binding affinity to human bradykinin B1 receptor expressed in rat CNS
# T2 sequence (P46663 whole entry): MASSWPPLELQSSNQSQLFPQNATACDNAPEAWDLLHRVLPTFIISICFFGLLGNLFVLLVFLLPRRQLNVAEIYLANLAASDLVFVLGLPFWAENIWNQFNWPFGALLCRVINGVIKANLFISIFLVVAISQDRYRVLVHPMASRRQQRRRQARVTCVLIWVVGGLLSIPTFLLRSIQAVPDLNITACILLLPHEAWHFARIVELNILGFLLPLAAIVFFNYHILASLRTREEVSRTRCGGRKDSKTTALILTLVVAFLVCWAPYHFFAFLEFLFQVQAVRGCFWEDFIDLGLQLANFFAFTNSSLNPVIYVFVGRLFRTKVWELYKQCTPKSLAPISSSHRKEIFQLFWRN
# [5] = Ratio of permeability from basolateral to apical over apical to basolateral side in P-gp expressing cells
# [6] = Oral bioavailability in Sprague-Dawley rat at 10 mg/kg; type: ADME, organism-based; settings: in vivo
# [7] = Half life in Sprague-Dawley rat at 10 mg/kg, po or 2 mg/kg, iv; type: ADME, organism-based; settings: in vivo
# [8] = Clearance in Sprague-Dawley rat at 10 mg/kg, po or 2 mg/kg, iv; type: ADME, organism-based; settings: in vivo
# [9] = biological target: T3, B1 bradykinin receptor (Homo sapiens) (UniProt P46663); experiment: Ex vivo receptor occupancy at bradykinin B1 receptor
# T3 sequence (whole entry): T2 sequence (P46663 whole entry)
# [10] = Ratio of drug level in brain to plasma in african green monkey; type: ADME, organism-based; settings: chlorocebus aethiops
# [11] = Oral bioavailability in Mongrel dog at 3 mg/kg; type: ADME, organism-based, Canis lupus familiaris; settings: in vivo
# [12] = Oral bioavailability in rhesus monkey at 3 mg/kg; type: ADME, organism-based, Macaca mulatta; settings: in vivo
# [13] = Half life in rhesus monkey at 3 mg/kg, po or 1 mg/kg, iv; type: ADME, organism-based, Macaca mulatta; settings: in vivo
# [14] = Clearance in rhesus monkey at 3 mg/kg, po or 1 mg/kg, iv; type: ADME, organism-based, Macaca mulatta; settings: in vivo
SMILES,Papp [1],activity at 10 µM [2],half-life [3],clearance [4],Ki (B1 bradykinin receptor),Ratio [5],bioavailability [6],half-life [7],clearance [8],Occ90 [9],Kp [10],bioavailability [11],bioavailability [12],half-life [13],clearance [14]
C[C@@H](NC(=O)C1(NC(=O)c2cc(C3CC3)on2)CC1)c1ncc(-c2cc(Cl)cc(Cl)c2OCC(F)F)cc1F,18 ×10⁻⁶ cm/s,58%,6.9 h,13 mL/min/kg,2.6 nM,3.8,,,,,,,,,
CCOc1c(Cl)cc(Cl)cc1-c1ccc([C@@H](C)NC(=O)C2(NC(=O)C(F)(F)F)CC2)c(F)c1,18 ×10⁻⁶ cm/s,62%,,,1.3 nM,,38%,7.5 h,11.5 mL/min/kg,,,,,,
C[C@@H](NC(=O)C1(NC(=O)C(F)(F)F)CC1)c1ncc(-c2cc(Cl)cc(Cl)c2OCC(F)F)cc1F,23 ×10⁻⁶ cm/s,99%,21 h,2.3 mL/min/kg,1.5 nM,,,,,,,,,,
C[C@@H](NC(=O)C1(NC(=O)c2ccno2)CC1)c1ncc(-c2cc(Cl)cc(Cl)c2OCC(F)F)cc1F,29 ×10⁻⁶ cm/s,21%,4 h,5.9 mL/min/kg,0.4 nM,3.9,,,,,,,,,
C[C@@H](NC(=O)C1(NC(=O)C(F)(F)F)CC1)c1ccc(-c2cc(Cl)cc(Cl)c2OC(CF)CF)cc1F,28 ×10⁻⁶ cm/s,,,,0.9 nM,,56%,5 h,1.6 mL/min/kg,,,,,,
CC(C)Oc1c(Cl)cc(Cl)cc1-c1ccc([C@@H](C)NC(=O)C2(NC(=O)C(F)(F)F)CC2)c(F)c1,,,,,2.3 nM,,,,,,,,,,
COC(=O)c1c(Cl)cc(Cl)cc1-c1ccc([C@@H](C)NC(=O)C2(NC(=O)c3cc(OC)no3)CC2)c(F)c1,,40%,,,0.4 nM,5.1,,,,,,,,,
CCOc1c(Cl)cc(Cl)cc1-c1cnc([C@@H](C)NC(=O)C2(NC(=O)C(F)(F)F)CC2)c(F)c1,,89%,,,1.5 nM,,8%,5 h,11.3 mL/min/kg,1450 nM,2.2,,,,
CCOc1cc(C(=O)NC2(C(=O)N[C@H](C)c3ncc(-c4cc(Cl)cc(Cl)c4OCC(F)F)cc3F)CC2)on1,25 ×10⁻⁶ cm/s,37%,13.5 h,3 mL/min/kg,1.1 nM,2.1,,,,,,,,,
CCOc1c(Cl)cccc1-c1ccc([C@@H](C)NC(=O)C2(NC(=O)C(F)(F)F)CC2)c(F)c1,29 ×10⁻⁶ cm/s,,,,0.9 nM,1.9,48%,1.9 h,16 mL/min/kg,,,,,,
Cc1cc(C(=O)NC2(C(=O)N[C@H](C)c3ncc(-c4cc(Cl)cc(Cl)c4OCC(F)F)cc3F)CC2)no1,23 ×10⁻⁶ cm/s,28%,9.4 h,4.5 mL/min/kg,1.4 nM,1.5,30%,3 h,5.1 mL/min/kg,940 nM,0.9,21%,25%,1.6 h,9.1 mL/min/kg
C[C@@H](NC(=O)C1(NC(=O)C(F)(F)F)CC1)c1ccc(-c2cc(Cl)cc(Cl)c2OCC(F)F)cc1F,26 ×10⁻⁶ cm/s,95%,,,0.2 nM,,,7.6 h,5.8 mL/min/kg,,,,,,
COC(=O)c1c(Cl)cc(Cl)cc1-c1ccc([C@@H](C)NC(=O)C2(NC(=O)C(F)(F)F)CC2)c(F)c1,,77%,1.6 h,20 mL/min/kg,0.4 nM,,,,,,,,,,11.2 mL/min/kg
C[C@@H](NC(=O)C1(NC(=O)c2ccon2)CC1)c1ncc(-c2cc(Cl)cc(Cl)c2OCC(F)F)cc1F,35 ×10⁻⁶ cm/s,23%,18 h,2 mL/min/kg,1.2 nM,1.8,,,,,,,,,
COc1cc(C(=O)NC2(C(=O)N[C@H](C)c3ncc(-c4cc(Cl)cc(Cl)c4OCC(F)F)cc3F)CC2)on1,28 ×10⁻⁶ cm/s,8%,21 h,1.2 mL/min/kg,0.5 nM,2,44%,4.5 h,2.4 mL/min/kg,540 nM,0.7,94%,93%,6.2 h,1.6 mL/min/kg
C[C@@H](NC(=O)C1(NC(=O)C(F)(F)F)CC1)c1ccc(-c2cc(Cl)cc(Cl)c2OCC(F)(F)F)cc1F,6.3 ×10⁻⁶ cm/s,45%,,,1.8 nM,,35%,27 h,1.1 mL/min/kg,,,,,,
CCOc1c(Cl)cc(Cl)cc1-c1cnc([C@@H](C)NC(=O)C2(NC(=O)c3ccno3)CC2)c(F)c1,,15%,4.5 h,7 mL/min/kg,0.6 nM,,7%,1.9 h,10 mL/min/kg,380 nM,1.4,55%,3%,1.2 h,15 mL/min/kg
C[C@@H](NC(=O)C1(NC(=O)c2cc(Cl)no2)CC1)c1ncc(-c2cc(Cl)cc(Cl)c2OCC(F)F)cc1F,26 ×10⁻⁶ cm/s,68%,34 h,2.6 mL/min/kg,0.2 nM,1.6,,,,,,,,,
CCc1cc(C(=O)NC2(C(=O)N[C@H](C)c3ncc(-c4cc(Cl)cc(Cl)c4OCC(F)F)cc3F)CC2)no1,25 ×10⁻⁶ cm/s,37%,4.5 h,14 mL/min/kg,1.9 nM,2,,,,,,,,,
